The values below come from article PMC9386376, “Discovery of spirooxindole-derived small-molecule compounds as novel HDAC/MDM2 dual inhibitors and investigation of their anticancer activity” (Frontiers in Oncology, 2022).

Broadly, the IC50 is the concentration that inhibits the measured activity by half. As usually defined, the inhibition is the drop in the measured response relative to a control, in per cent. A lower inhibition goes with a response near the control.

One experiment concerns MCF-7 cells. Put plainly: MTT antiproliferative assay, MCF-7. To be noted: Homo sapiens, MCF7, read-out: IC50 MCF-7. A general note: Tetrazolium assays rely on reduction of a dye to a coloured formazan, in cell work by metabolically active cells.
In a further experiment the target is T1, HDAC6 (Homo sapiens, UniProt Q9UBN7).
T1 sequence (Q9UBN7 1-1215): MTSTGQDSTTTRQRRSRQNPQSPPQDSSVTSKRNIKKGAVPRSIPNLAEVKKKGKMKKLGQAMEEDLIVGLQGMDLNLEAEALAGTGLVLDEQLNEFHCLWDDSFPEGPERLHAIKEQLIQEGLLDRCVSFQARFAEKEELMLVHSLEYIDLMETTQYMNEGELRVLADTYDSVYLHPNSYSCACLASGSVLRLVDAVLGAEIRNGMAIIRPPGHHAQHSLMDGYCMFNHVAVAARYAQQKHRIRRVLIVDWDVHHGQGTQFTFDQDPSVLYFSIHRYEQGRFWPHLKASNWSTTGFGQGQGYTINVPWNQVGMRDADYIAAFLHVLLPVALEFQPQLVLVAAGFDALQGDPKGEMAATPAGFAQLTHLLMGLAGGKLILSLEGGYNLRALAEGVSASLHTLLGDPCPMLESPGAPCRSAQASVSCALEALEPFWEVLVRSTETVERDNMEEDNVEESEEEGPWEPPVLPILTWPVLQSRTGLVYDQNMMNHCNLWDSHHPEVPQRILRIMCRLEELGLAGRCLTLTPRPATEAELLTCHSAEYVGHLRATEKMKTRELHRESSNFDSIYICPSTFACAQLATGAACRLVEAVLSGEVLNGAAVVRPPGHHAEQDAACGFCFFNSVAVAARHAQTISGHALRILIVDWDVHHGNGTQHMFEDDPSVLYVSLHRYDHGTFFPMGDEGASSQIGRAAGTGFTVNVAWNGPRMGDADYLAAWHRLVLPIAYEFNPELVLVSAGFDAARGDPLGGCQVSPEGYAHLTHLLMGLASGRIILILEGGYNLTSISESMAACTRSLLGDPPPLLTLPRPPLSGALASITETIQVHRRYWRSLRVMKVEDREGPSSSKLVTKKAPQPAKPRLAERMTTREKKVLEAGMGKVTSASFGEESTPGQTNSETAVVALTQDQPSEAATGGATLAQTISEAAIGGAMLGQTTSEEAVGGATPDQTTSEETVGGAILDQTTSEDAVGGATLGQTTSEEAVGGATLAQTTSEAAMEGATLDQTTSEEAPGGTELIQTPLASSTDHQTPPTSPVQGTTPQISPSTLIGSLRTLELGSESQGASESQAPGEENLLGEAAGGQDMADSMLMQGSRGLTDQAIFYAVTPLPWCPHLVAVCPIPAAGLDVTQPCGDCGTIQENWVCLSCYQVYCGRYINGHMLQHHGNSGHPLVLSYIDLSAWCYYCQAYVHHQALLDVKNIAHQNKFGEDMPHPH
Put plainly: HDAC isoform selectivity, HDAC6. To be noted: HDAC subtype panel. The format is biochemical.

The next experiment addresses T2, GST-tagged MDM2 (Homo sapiens, UniProt Q00987).
T2 construct: purchased Cisbio Co. Ltd
The experiment in a line: HTRF enzyme inhibition assay, MDM2. The format is biochemical. Conditions: compound at 1 μM. (In general: In TR-FRET formats the signal depends on donor and acceptor labels being close together.)

A further experiment has as its system A431 cells. The experiment in a line: MTT antiproliferative assay, A431. To be noted: Homo sapiens, A-431, read-out: IC50 A431.
For the next experiment, the target named is T3, HDAC7 (Homo sapiens, UniProt Q8WUI4).
T3 sequence (Q8WUI4 1-952): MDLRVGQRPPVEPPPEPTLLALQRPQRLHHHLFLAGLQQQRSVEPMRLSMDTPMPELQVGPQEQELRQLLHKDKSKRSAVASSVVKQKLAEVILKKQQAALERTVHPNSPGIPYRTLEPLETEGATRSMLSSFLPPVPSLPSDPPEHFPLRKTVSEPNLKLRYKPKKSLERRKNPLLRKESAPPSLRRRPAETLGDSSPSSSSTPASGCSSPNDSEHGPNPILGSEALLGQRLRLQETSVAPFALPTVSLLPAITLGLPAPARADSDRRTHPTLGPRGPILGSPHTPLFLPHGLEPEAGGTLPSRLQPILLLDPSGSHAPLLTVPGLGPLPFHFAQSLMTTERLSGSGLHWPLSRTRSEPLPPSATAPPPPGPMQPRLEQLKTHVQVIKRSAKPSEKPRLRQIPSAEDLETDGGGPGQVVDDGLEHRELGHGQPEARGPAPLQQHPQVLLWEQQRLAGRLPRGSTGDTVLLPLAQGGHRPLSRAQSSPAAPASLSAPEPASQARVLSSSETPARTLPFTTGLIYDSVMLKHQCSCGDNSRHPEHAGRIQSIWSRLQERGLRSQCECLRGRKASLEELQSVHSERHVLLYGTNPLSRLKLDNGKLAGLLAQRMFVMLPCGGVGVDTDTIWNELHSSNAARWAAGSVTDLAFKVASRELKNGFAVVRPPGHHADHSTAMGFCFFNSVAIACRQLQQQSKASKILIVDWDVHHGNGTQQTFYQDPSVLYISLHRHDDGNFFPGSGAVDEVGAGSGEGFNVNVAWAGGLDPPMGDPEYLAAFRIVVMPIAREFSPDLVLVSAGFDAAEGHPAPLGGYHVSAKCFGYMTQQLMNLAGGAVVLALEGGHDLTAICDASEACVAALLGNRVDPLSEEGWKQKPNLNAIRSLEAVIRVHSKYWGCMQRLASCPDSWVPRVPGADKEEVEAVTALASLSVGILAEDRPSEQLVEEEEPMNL
The experiment in a line: HDAC isoform selectivity, HDAC7. Conditions: HDAC subtype panel. The format is biochemical.

T2 sequence (Q00987 whole entry): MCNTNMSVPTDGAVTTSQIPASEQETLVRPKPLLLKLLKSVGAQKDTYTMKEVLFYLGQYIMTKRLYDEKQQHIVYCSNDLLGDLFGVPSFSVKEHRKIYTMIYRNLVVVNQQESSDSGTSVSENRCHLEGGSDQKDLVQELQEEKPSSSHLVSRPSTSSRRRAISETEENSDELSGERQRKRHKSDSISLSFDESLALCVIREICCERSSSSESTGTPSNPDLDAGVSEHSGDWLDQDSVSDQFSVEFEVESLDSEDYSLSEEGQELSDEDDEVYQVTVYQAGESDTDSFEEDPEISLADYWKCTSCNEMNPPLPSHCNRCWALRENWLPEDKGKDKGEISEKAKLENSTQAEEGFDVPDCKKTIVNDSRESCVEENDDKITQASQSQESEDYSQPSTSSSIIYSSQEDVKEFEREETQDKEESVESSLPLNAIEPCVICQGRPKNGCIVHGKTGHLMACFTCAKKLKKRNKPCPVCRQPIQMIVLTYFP
Experimental for A431 cells: (§1) The cytotoxicity assay was performed with MTT method as previously described ([73], [88], [89]).
Experimental for MCF-7 cells: as §1

`O=C(CCCCCCC(=O)N1CCC(C(=O)Nc2ccc([C@@H]3[C@H]4CSCN4[C@]4(C(=O)Nc5cc(Cl)ccc54)[C@H]3C(=O)c3ccccc3)cc2)CC1)NO` [compound 11b, N-(4-((3R,6'S,7'R,7a'S)-6'-benzoyl-6-chloro-2-oxo-1',6',7',7a'-tetrahydro-3'H-spiro[indoline-3,5'-pyrrolo[1,2-c]thiazol]-7'-yl)phenyl)-1-(8-(hydroxyamino)-8-oxooctanoyl)piperidine-4-carboxamide]: the IC50 was 1370 ± 450 nM in the experiment with MCF-7 cells, 120 ± 26 nM on HDAC6, 1890 ± 880 nM with A431 cells and greater than 10000 nM on HDAC7. In addition, the inhibition at 1 µM against GST-tagged MDM2 stood at 68%.
